# Experiments:
# [1] = Miscibility / solubility of the fluorinated compound in the oil (MCT, PFOB); format: physicochemical
# Method: The emulsion of the invention comprises the semifluorinated compound and preferably the mid-chain triglyceride (MCT). According to one aspect of the invention the oil components of the emulsion form a homogeneous solution at 20° C. […] The oil phase may comprise further oil components such as long chain fatty acid triglycerides based on vegetable oil or marine oils such as fish oil. The amount of the further oil components is preferable adjusted that a completely miscible oil phase is maintained. Generally, the amount of oil components which are different from the semifluorinated compound and triglyceride b) which is preferably the MCT, are less than 50 weight percent (wt.-%), preferably less than 40 wt.-%, more preferably less than 30 wt.-%, further preferably less than 20 wt.-%, especially less than 10 wt.-%, in particular less than 5 wt.-% or essentially free, wherein the amount is based on the total weight of the oil components.
# Perfluoroctylbromide (PFOB) is a known contrast agent for the magnetic resonance spectroscopy.
# [2] = Density measurement of mixtures of MCT and F6H8; format: physicochemical; conditions: based on the total weight of the oil phase, FIG. 1C
# Excerpt: By adapting the density of the oil phase to the density of the aqueous phase coalescence phenomena of the droplets as well as sedimentation phenomena, which destabilize the emulsion, can be decreased.
# At about 38.5 wt.-% of F6H8 and about 61.5 wt.-% of MCT, (weight based on the total weight of the oil phase) the density of the oil mixture corresponds to the density of the aqueous phase.
smiles,measurement,setting,value
"FC(F)(F)C(F)(F)C(F)(F)C(F)(F)C(F)(F)C(F)(F)C(F)(F)C(F)(F)Br [PFOB, Perfluoroctylbromide]",solubility in MCT,[1],cannot be dissolved in MCT
"CCCCCCCCC(F)(F)C(F)(F)C(F)(F)C(F)(F)C(F)(F)C(F)(F)F [Example F6H8, perfluorohexyloctane]",miscibility with MCT,[1]; 20° C.,miscible at 20 °C
same,"share of F6H8 in the oil phase (rest MCT, about 61.5 wt.-%) at which the density of the oil mixture corresponds to the density of the aqueous phase",[2],about 38.5 wt.-%
"FC(F)(F)C(F)(F)C(F)(F)C(F)(F)C(F)(F)C(F)(F)C(F)(F)C(F)(F)C(F)(F)C(F)(F)Br [PFDB, perfluorodecylbromide]",solubility in PFOB,[1],can be dissolved in PFOB

# Source: patent US20230355810A1, “Semifluorocarbon Compound Containing Contrast Agent” (B. Braun Melsungen AG, priority 2013, published 2023)
